Where two headings read alike, the source gives them in different places. Values belong to the molecule of their own block, whether it stands above or below them. Where a SMILES comes first, the peptide text is derived from it. [ ]: non-standard residue; d: D form. pY = N[C@@H](Cc1ccc(OP(=O)(O)O)cc1)C(=O)O; mts = not defined here
Legend:
full length Stat3 = target: T1, full length Stat3 (Homo sapiens, UniProt P40763); experiment: Fluorescence polarization assay, competition with FP probe for full length Stat3; type: binding
T1 construct: Aliquots of 50 μl of 80 nM full length Stat^3a and 20 nM of probe
Description: FIG. 5 is FP curves of Stat3. Left panel, Titration of full length Stat3 into 10 nM solutions of FP probe. Each protein concentration was run in duplicate and the mean ±½ the difference between the high and low value was plotted. […] Each peptide concentration was run in duplicate and the mean ±½ the difference between the high and low value was plotted. A Perkin Elmer (formerly Packard) 204DT Multiprobe liquid handling robot was used to prepare serial dilutions of the inhibitors and to add these solutions to Stat3-probe solutions. The dilutions and additions were done in 96-well plates and FP was read on a Tecan Polarian plate reader. […]
Fluorescence polarization (FP) is a rapid and easy method for the measurement of peptide-protein interactions, drug-protein interactions, and drug-oligonucleotide interactions, and is readily adaptable to high throughput formats (reviewed in Nasir & Joley, 1999; Owicki, 2000). FP involves exciting a fluorophore with polarized light and taking the ratio of fluorescence at right angles after a brief period of time. […]
Aliquots of 50 μl of 80 nM full length Stat^3a and 20 nM of probe in 50 mM NaCl, 10 mM Hepes, 1 mM Na4EDTA, 2 mM DTT, and 1% NP-40 were placed in wells of a 96 well black, opaque, non-stick microtiter plate. […] Fluorescence polarization was then read in a Tecan Polarian plate reader. […]

Stat3 [1] = target: T2, Stat3 (Homo sapiens, UniProt P40763); conditions: cited from earlier work
Stat3 [2] = target: T2, Stat3; experiment: EMSA of inhibition of Stat3 dimerization and DNA binding by phosphopeptides; type: biochemical; conditions: averages of two determinations
Description: To find a lead compound for inhibitor development, a series of phospho-hexapeptides derived from known receptor docking sites for Stat3 were synthesized and assayed for their ability to inhibit Stat3 dimerization and DNA binding using electrophoretic mobility shift assays (EMSA) (Ren et al., 2003). […] SAR experiments were conducted systematically replacing each amino acid. The goal was to find non-peptidic groups that would be stable to phosphatases and proteases, and that would be more hydrophobic to allow greater bioavailability. […] The small peptidomimetics were assayed for their ability to bind to the SH2 domain of Stat3 using fluoresence polarization.
(§1) Nuclear extract was extracted as previously described (Andrews and Faller, 1991). Equal amount of nuclear extract protein was then incubated with ^32P labeled high-affinity c-sis-inducible element (hSIE; 5′-[…]-3′ , SEQ ID NO:25) (Santa Cruz). The reactions were performed in a total volume of 24 μl in buffer consisting of 10 mM HEPES (pH 7.8), 50 mM KCl, 1 mM EDTA, 5 mM MgCl2, 10% glycerol, 5 mM dithiothreitol, 1 mg of bovine serum albumin per ml, 0.5 mM phenyl-methylsulfonylflouride, and 1 mM Na3VO4 with 1 μg of poly (dI-dC) and 0.3 ng of ^32P-labeled hSIE. […] The screen was then scanned and the bands showing Stat3-DNA binding were quantified using the Storm System (Molecular Dynamics).

[3] = test system: Stat3-responsive α2-macroglobulin promoter; experiment: IL-6 stimulated luciferase reporter under α2-macroglobulin promoter in HEPG2 cells; type: cell-based; conditions: for inhibition of luciferase activity, initial screen: IL-6
Description: Liver hepatoma cells, HEPG2, when stimulated with IL-6, respond by increased phosphorylation of Stat3, which translocates to the nucleus and initiates transcription of acute response phase genes, such as a2-macroglobulin. HEPG2 cells were transfected with luciferase gene construct containing the α2-macroglobulin promoter. Cells were treated with peptides 21, 24, and 25 for 1 hr before stimulation with IL-6. Four hours later cells were lysed and luciferase activity was assayed (FIG. 9). […] Phosphopeptide 24 reduced induction to 60-70% of that of IL-6 at 50 and 100 μM.
(§2) Cell culture and transient transfection. HepG2 cells were grown in DMEM containing 10% fetal bovine serum. Cells were plated at a density of 3×10^5 per 6cm dish. Next day, plasmids were transfected with a plasmid comprised of firefly luciferase under the α2-macroglobulin promoter (Ren & Schaefer, 2002) at a ratio of 1 μg DNA to 3 μl Fugene-6 reagent according to the protocol supplied by Roche. After 48 hours, cells were treated with different peptides in serum free media for 1 hour, and then stimulated with […] IL-6. Cells were harvested at the time indicated.
(§3) Luciferase assay. Luciferase assay reagents were purchased from Promega and the assays performed according to the manufacturer's protocol. In brief, cells were washed twice with ice-cold PBS and then collected. After centrifugation at 4,500 rpm for 1 minute, cells were lysed in 1× lysis buffer (Promega) at room temperature for 30 minutes. The lysate was cleared by centrifugation at 13,000 rpm for 10 minutes. Then 50 μl of luciferase substrate was added to 10 μl of supernatant and the luciferase value was read by luminometer (Pharmingen). Each transfection was normalized to concomitant β-galactosidase expression from a control transfected plasmid pYN3214-lacZ.

Stat3 [4] = target: T2, Stat3; experiment: Stat3 nuclear translocation, EMSA of nuclear extracts of IL-6 stimulated HepG2 cells; type: cell-based; conditions: HepG2, 100 μM for 1 hr, IL-6 15 min
Description: FIG. 11 is an image of a gel showing EMSA of nuclear extracts of HEPG2 cells inhibited with peptides. Shown are gels from two independent experiments. Lane 1, control: no IL-6 or inhibitor. Lane 2-6 are all stimulated with IL-6, 6 ng/mL. Lane 2, no inhibitor, Lane 3 phosphopeptide 24, Lane 4, control peptide 25, Lane 5, F2PmCinn peptide 21, Lane 6, prodrug 23.
HepG2 cells were treated with 100 μM peptide for 1 hr. Cells were stimulated with IL-6 and 15 min later cells were lysed and nuclear extracts were obtained.
as §1, with “hSIE. Following incubation for 15 min at room temperature, the reactions were electrophoresed on 4% native polyacrylamide gets.” for “hSIE.”

[5] = test system: Stat3-responsive α2-macroglobulin promoter; experiment: IL-6 stimulated luciferase reporter in Hep3B cells; type: cell-based; conditions: FIG. 10
Description: Peptidomimetic 23 was tested for the ability to inhibit luciferase induction in a second hepatoma cell line: Hep3B. Identical procedures as for the HEPG2 experiments above were used in this cell line.
as §2
as §3, with “Each transfection was normalized to concomitant β-galactosidase expression from a control transfected plasmid pYN3214-lacZ.” left out

SH2 domain of Stat3 = experiment: IC50 FP (nM)
Description: Table printed on a drawing sheet, FIGURE 14a
Head of the field: IC50 FP (nM)
First copying reader's note: The column headed 'Structure' holds only drawn chemical structures (left empty here); the written peptidomimetic sequence stands in an unheaded column to its left.
Where the first naming reader finds the target: passage: The small peptidomimetics were assayed for their ability to bind to the SH2 domain of Stat3 using fluoresence polarization.

T2 sequence (P40763 whole entry, species assumed): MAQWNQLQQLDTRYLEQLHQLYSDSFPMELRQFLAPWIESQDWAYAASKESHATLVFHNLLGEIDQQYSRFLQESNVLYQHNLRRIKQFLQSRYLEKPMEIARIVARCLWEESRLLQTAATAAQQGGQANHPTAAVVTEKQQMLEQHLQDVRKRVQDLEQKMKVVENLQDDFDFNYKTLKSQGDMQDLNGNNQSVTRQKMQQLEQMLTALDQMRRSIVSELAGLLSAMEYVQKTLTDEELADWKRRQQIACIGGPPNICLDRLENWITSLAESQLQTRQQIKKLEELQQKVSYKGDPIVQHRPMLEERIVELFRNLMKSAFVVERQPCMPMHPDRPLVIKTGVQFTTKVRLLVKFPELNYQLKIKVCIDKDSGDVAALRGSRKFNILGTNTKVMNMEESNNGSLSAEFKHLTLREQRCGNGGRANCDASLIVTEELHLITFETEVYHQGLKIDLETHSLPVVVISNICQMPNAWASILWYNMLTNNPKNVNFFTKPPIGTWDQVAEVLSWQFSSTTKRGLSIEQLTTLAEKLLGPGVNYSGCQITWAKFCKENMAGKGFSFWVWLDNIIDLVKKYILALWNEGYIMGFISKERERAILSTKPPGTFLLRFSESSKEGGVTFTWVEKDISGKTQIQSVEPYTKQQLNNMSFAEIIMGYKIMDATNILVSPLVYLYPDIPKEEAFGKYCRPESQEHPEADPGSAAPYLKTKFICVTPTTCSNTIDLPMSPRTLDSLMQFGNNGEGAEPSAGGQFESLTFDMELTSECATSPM
T1 sequence (P40763 whole entry, species assumed): as above

Molecule: CC(=O)NC(Cc1ccc(OP(=O)(O)O)cc1)C(=O)NC1CCc2cccc3c2N(C1=O)C(C(=O)NC(CCC(N)=O)C(=O)NC(C(N)=O)C(C)O)C3 (stereo not drawn) [Compound 10, Ac-pTyr-Haic-Gln-Thr-NH2]
IC50 (full length Stat3; 10 nM probe and 40 nM Stat3 final, read-out: IC50 (fluorescence polarization)): 100 to 200 nM

Molecule: NC(=O)CCC(NC(=O)C1CCC2CCC(NC(=O)C=Cc3ccc(OP(=O)(O)O)cc3)C(=O)N21)C(=O)NCc1ccccc1 (stereo not drawn) [FIG. 15 compound]
IC50 (full length Stat3; assay not named, presumably fluorescence polarization, read-out: IC50 of the FIG. 15 compound): 400 nM

Molecule: CC(C)C[C@H](NC(=O)[C@H](Cc1ccc(OP(=O)(O)O)cc1)NC(=O)c1ccc(C#N)cc1)C(=O)O [ISS 610]
concentration required for activity in luciferase reporter and cell growth assays (Stat3 [1]; cell culture models, Turkson et al. (2004)): 1 mM

Molecule: CC(=O)N[C@@H](Cc1ccc(OP(=O)(O)O)cc1)C(=O)N[C@@H](CC(C)C)C(=O)N[C@@H](CCCCN)C(=O)N[C@H](C(=O)N[C@@H](CCCCN)C(=O)N[C@@H](Cc1ccccc1)C(N)=O)[C@@H](C)O [Peptide 2, Ac-pTyr-Leu-Lys-Thr-Lys-Phe-NH2] (Ac-[pY]LKTKF-NH2)
IC50 (Stat3 [2]): 20000 nM

Molecule: Ac-Tyr-Leu-Pro-Gln-Thr-Val-mts (Ac-YLPQTV-mts; not fully specified; printed as Ac-Tyr-Leu-Pro-Gln-Thr-Val-mts; reading uncertain) [Peptide 25, non-phosphorylated control]
reduction in luciferase activity ([3]; HEPG2, 50 or 100 μM, 1 hr before IL-6, lysed 4 h later): no significant reduction in luciferase activity

Molecule: Ac-pTyr-Leu-Pro-Gln-Thr-Val-mts (Ac-[pY]LPQTV-mts; reading uncertain; also: printed as Ac-pTyr-Leu-Pro-Gln-Thr-Val-mts) [Peptide 24]
luciferase induction, % of that of IL-6 ([3]; HEPG2, at 50 and 100 μM): 60-70%

Molecule: F2Pm(POM)Cinn-Haic-Gln-NHBn [Compound 23]
inhibition of Stat3 translocation to the nucleus (Stat3 [4]): inhibited Stat3 translocation to the nucleus | reduction in luciferase activity [5]: dose dependant reduction in luciferase activity

IC50 (SH2 domain of Stat3): 2000 nM
Molecule: F2PmCinn-Cha-Pro- Gln-NHBn [8 | PM-88D]

Molecule: F2PmCinn-Leu-Pro-Gln-Thr-Val-Ala-Ala-Val-Leu-Leu-Pro-Val-Leu-Leu-Ala-Ala-Pro-NH2 [Peptide 21]
inhibition of Stat3 translocation to the nucleus (Stat3 [4]): inhibited Stat3 translocation to the nucleus | luciferase activity, % of untreated cells ([3]; HEPG2, 50 μM): 50% | luciferase activity, % of untreated cells ([3]; HEPG2, 100 μM): 25%

Molecule: H-P[pY]LKTKAAVLLPVLLAAP-OH [SEQ ID NO:4]
concentration required to inhibit luciferase reporter gene expression, Stat3 nuclear translocation, and cell growth (Stat3 [1]; cell culture, Turkson et al.): 0.5 to 1 mM

Molecule: H-Pro-Tyr-Leu-Lys-Thr-Lys-Phe-Ile-mts (H-PYLKTKFI-mts; not fully specified; reading uncertain) [Peptide 26, reported by Turkson et al (2001), reference compound]
inhibition of luciferase activity, initial screen ([3]; HEPG2, 100 μM): neither phosphopeptide 26 nor the unphosphorylated version, 27 (Turkson et al, 2001), showed inhibition of luciferase activity

Molecule: H-Pro-pTyr-Leu-Lys-Thr-Lys-Phe-Ile-mts (H-P[pY]LKTKFI-mts; reading uncertain; also: printed as H-Pro-pTyr-Leu-Lys-Thr-Lys-Phe-Ile-mts) [Peptide 27, reported by Turkson et al (2001), reference compound]
inhibition of luciferase activity, initial screen ([3]; HEPG2, 100 μM): neither phosphopeptide 26 nor the unphosphorylated version, 27 (Turkson et al, 2001), showed inhibition of luciferase activity

IC50 (SH2 domain of Stat3): 50 nM
Molecule: pCinn-Cha-Pro-Gln- NHBn [7 | PM-66D]

IC50 (SH2 domain of Stat3): 110 nM
Molecule: pCinn-Leu-Pro-Gln- Thr-NH2 [5 | PM-50D]

IC50 (SH2 domain of Stat3): 100 nM
Molecule: pInd-Cha-Pro-Gln- NHBn [9 | PM-67D]
